Structures can show the parent of a compound that is named as a salt.
Key:
[1] = biological target: T1, Human fibrinogen receptor (αIIbβ3) (Homo sapiens, UniProt P05106+P08514); test: Purified IIb/IIIa receptor assay (solid phase receptor assay); details: inhibition of 50% of maximum binding of biotinylated vitronectin; highest concentration tested 1.0×10^-4 M
T1 construct: purified from outdated platelets; from tissue; host or cells: outdated platelets (human)
Protocol: The activity of the compounds of the present invention was tested in the following assays.
Human fibrinogen receptor (αIIbβ3) was purified from outdated platelets. […] Biotinylated human vitronectin was prepared by coupling NHS-biotin from Pierce Chemical Company (Rockford, Ill.) to purified vitronectin as previously described. […] Anti-biotin antibody was obtained from Calbiochem (La Jolla, Calif.). Linbro microtiter plates were obtained from Flow Labs (McLean, Va.). ADP reagent was obtained from Sigma (St. Louis, Mo.).
Solid Phase Receptor Assays
The purified human fibrinogen receptor (αIIbβ3) was diluted from stock solutions to 1.0 μg/mL in Tris-buffered saline containing 1.0 mM Ca^++, Mg^++, and Mn^++, pH 7.4 (TBS^+++). The diluted receptor was immediately transferred to Linbro microtiter plates at 100 μL/well (100 ng receptor/well). The plates were sealed and incubated overnight at 4° C. to allow the receptor to bind to the wells. All remaining steps were at room temperature. The assay plates were emptied and 200 μL of 1% RIA grade BSA in TBS^+++ (TBS^+++ /BSA) were added to block exposed plastic surfaces. Following a 2 hour incubation, the assay plates were washed with TBS^+++ using a 96 well plate washer. Logarithmic serial dilution of the test compound and controls were made starting at a stock concentration of 2 mM and using 2 nM biotinylated vitronectin in TBS^+++ /BSA as the diluent. This premixing of labeled ligand with test (or control) ligand, and subsequent transfer of 50 μL aliquots to the assay plate was carried out with a CETUS Propette robot; the final concentration of the labeled ligand was 1 nM and the highest concentration of test compound was 1.0×10^-4 M. The competition occurred for two hours after which all wells were washed with a plate washer as before. Affinity purified horseradish peroxidase labeled goat anti-biotin antibody was diluted 1:3000 in TBS^+++ /BSA and 125 μL were added to each well. After 30 minutes, the plates were washed and incubated with […]/H2 O2 substrate in 100 mM/L citrate buffer, pH 5.0. The plate was read with a microtiter plate reader at a wavelength of 450 nm and when the maximum-binding control wells reached an absorbance of about 1.0, the final A450 were recorded for analysis. The data were analyzed using a macro written for use with the EXCEL™ spreadsheet program. The mean, standard deviation, and % CV were determined for duplicate concentrations. The mean A450 values were normalized to the mean of four maximum-binding controls (no competitor added) (B-MAX). The normalized values were subjected to a four parameter curve fit algorithm, [Robard et al., Int.

[2] = biological target: T2, Human vitronectin receptor(αvβ3) (Homo sapiens, UniProt P05106+P06756); test: Vitronectin adhesion assay (solid phase receptor assay, αvβ3); details: inhibition of 50% of maximum binding of biotinylated vitronectin; highest concentration tested 1.0×10^-4 M; read-out: AvB3 IC50
T2 construct: purified from human placenta; from tissue; host or cells: human placenta
T2 sequence (P06756 31-889 limits assumed): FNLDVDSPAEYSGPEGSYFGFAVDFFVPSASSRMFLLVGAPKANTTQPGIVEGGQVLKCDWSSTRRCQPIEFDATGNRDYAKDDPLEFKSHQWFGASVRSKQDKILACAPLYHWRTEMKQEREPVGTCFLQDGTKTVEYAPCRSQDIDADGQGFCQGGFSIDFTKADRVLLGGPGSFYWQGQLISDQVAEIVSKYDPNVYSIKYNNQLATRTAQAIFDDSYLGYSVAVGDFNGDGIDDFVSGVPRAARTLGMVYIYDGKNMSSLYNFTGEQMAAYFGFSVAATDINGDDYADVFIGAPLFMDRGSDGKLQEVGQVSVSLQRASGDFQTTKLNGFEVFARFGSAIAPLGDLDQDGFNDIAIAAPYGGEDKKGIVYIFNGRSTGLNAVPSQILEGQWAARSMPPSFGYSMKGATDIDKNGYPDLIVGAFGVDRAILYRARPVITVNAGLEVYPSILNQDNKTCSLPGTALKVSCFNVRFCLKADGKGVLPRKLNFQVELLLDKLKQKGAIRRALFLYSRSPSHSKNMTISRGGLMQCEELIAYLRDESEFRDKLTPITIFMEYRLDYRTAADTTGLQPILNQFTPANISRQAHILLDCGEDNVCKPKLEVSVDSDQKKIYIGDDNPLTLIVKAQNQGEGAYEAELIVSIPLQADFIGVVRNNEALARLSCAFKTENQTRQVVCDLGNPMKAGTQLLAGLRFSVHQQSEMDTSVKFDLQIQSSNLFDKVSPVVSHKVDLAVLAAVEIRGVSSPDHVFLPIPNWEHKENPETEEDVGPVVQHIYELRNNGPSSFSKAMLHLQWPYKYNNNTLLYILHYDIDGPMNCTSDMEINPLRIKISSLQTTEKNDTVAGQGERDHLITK
T2 sequence (P06756 891-1048 limits assumed): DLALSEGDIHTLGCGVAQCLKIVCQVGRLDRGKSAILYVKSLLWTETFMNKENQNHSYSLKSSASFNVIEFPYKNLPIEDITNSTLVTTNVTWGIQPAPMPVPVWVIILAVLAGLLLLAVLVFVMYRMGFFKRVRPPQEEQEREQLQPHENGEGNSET
T2 sequence (P05106 27-788): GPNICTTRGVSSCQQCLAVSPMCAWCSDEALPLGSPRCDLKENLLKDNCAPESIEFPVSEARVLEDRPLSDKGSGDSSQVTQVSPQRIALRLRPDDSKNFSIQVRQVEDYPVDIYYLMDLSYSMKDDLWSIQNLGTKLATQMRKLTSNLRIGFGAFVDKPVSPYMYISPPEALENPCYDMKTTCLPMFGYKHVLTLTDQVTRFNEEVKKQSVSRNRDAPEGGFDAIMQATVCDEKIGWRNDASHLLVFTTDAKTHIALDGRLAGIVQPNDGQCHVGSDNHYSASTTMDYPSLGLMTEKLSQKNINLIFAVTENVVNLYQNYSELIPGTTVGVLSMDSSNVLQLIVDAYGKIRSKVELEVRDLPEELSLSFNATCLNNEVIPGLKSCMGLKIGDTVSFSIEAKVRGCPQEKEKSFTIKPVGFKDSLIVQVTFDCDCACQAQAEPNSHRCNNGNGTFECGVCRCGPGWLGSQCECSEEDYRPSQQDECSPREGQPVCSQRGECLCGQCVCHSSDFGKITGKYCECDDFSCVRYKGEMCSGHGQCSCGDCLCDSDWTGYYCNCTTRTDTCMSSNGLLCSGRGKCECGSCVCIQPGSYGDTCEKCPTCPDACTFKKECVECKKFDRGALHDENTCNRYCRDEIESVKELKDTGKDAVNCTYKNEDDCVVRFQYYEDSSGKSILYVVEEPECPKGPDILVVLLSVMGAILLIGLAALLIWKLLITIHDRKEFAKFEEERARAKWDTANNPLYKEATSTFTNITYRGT
Protocol: The activity of the compounds of the present invention was tested in the following assays. […] Assay buffer, OPD substrate tablets, and RIA grade BSA were obtained from Sigma (St. Louis, Mo.). Anti-biotin antibody was obtained from Calbiochem (La Jolla, Calif.). Linbro microtiter plates were obtained from Flow Labs (McLean, Va.). ADP reagent was obtained from Sigma (St. Louis, Mo.). […] The purified human vitronectin receptor (αvβ3) was diluted from stock solutions to 1.0 μg/mL in Tris-buffered saline containing 1.0 mM Ca^++, Mg^++, and Mn^++, pH 7.4 (TBS^+++). The diluted receptor was immediately transferred to Linbro microtiter plates at 100 μL/well (100 ng receptor/well). The plates were sealed and incubated overnight at 4° C. to allow the receptor to bind to the wells. All remaining steps were at room temperature. The assay plates were emptied and 200 μL of 1% RIA grade BSA in TBS^+++ (TBS^+++ /BSA) were added to block exposed plastic surfaces. Following a 2 hour incubation, the assay plates were washed with TBS^+++ using a 96 well plate washer. […] The competition occurred for two hours after which all wells were washed with a plate washer as before. […] After 30 minutes, the plates were washed and incubated with OPD/H2 O2 substrate in 100 mM/L Citrate buffer, pH 5.0. […] The data were analyzed using a macro written for use with the EXCEL™ spreadsheet program. The mean, standard deviation, and % CV were determined for duplicate concentrations. The mean A450 values were normalized to the mean of four maximum-binding controls (no competitor added)(B-MAX). The normalized values were subjected to a four parameter curve fit algorithm [Rodbard et al., Int. […] Ser.

T1 sequence (P08514 32-887 limits assumed): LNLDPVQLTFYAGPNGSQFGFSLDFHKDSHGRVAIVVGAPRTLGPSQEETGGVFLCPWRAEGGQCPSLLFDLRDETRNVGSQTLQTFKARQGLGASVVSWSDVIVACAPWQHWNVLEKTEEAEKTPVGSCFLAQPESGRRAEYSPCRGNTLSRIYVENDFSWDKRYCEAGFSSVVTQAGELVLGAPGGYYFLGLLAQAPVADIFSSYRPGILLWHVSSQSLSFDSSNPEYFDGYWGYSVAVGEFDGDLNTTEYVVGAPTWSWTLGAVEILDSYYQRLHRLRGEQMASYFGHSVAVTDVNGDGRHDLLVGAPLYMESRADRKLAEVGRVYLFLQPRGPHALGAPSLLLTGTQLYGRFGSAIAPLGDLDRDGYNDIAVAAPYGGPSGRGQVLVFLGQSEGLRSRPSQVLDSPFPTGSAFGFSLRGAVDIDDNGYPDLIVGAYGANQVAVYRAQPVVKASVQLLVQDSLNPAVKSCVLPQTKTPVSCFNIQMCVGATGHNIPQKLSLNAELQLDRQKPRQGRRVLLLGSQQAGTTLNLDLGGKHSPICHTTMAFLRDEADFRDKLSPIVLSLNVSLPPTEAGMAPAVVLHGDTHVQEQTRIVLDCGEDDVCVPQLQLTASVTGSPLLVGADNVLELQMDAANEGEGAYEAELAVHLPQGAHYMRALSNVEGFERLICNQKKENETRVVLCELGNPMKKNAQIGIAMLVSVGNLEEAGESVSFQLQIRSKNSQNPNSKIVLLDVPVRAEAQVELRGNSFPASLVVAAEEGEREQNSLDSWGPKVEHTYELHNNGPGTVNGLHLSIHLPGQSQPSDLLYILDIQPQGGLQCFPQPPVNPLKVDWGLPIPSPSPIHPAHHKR
T1 sequence (P08514 891-1039 limits assumed): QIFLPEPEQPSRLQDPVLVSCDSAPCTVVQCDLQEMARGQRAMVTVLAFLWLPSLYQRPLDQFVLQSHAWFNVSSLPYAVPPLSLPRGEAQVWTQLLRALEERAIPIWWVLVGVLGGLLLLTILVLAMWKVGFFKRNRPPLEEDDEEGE
T1 sequence (P05106 27-788): as the sequence (P05106 27-788) above

How did the IC50 [1] turn out when `CC(C)COC(=O)NC(Cc1ccc(NC(=O)c2cc(NC(=N)N)cc(C(F)(F)F)c2)cc1)C(=O)O` (stereo not drawn) [Example 2, 4-[[[3-[(aminoiminomethyl)amino]-5-(trifluoromethyl)phenyl]carbonyl]amino]-N-[(2-methylpropoxy)carbonyl]phenylalanine, trifluoroacetate Salt] was run?
Its IC50 is 8.08 nM.

And the IC50 [2]?
The IC50 was 0.18 nM.

Which IC50 [1] does the source give for `CCCCS(=O)(=O)NC(Cc1ccc(OCc2cccc(NC(=N)N)c2)cc1)C(=O)O` (stereo not drawn) [Example 11, O-[[3-[(aminoiminomethyl)amino]-phenyl]methyl]-N-(butylsulfonyl)tyrosine, trifluoroacetate Salt monohydrate] here?
The IC50 was 4 nM.

What about the IC50 [2] of the same molecule?
The IC50 was 2.2 nM.

With `N=C(N)c1cccc(C(=O)Nc2ccc(CCC(=O)O)cc2)c1` [Example 20, 4-[[[3-(Aminoiminomethyl)phenyl]carbonyl]-amino]benzenepropanoic Acid] as the molecule, how does the IC50 [1] read?
Its IC50 is 39900 nM.

And the IC50 [2]?
The IC50 was over 100000 nM.

For `CC(CC(=O)OC(C)(C)C)c1ccc(NC(=O)c2cccc(NC(=N)N)c2)cc1` (stereo not drawn) [Example 30, 1,1-dimethylethyl 4-[[[3-[(aminoiminomethyl)amino]phenyl]carbonyl]amino]-β-methylbenzenepropanoate, trifluoroacetate Salt], which IC50 [1] is on record?
The IC50 was 3260 nM.

What about the IC50 [2] of the same molecule?
The IC50 was 6370 nM.

How did the IC50 [1] turn out when `CC(=O)NC(Cc1ccc(NC(=O)c2cccc(NC(=N)N)c2)cc1)C(=O)O` (stereo not drawn) [Example 35, N-acetyl-4-[[[3-[(aminoiminomethyl)amino]-phenyl]carbonyl]amino]phenylalanine, trifluoroacetate Salt] was run?
The IC50 was 148 nM.

What about the IC50 [2] of the same molecule?
Its IC50 is 2.69 nM.

For `CCOC(=O)C(Cc1ccc(NC(=O)c2cccc(NC(=N)N)c2)cc1)NC(=O)c1ccccc1` (stereo not drawn) [Example 36, 4-[[[3-[(aminoiminomethyl)amino]phenyl]-carbonyl]amino]-N-(phenylcarbonyl)phenylalanine Ethyl Ester, monohydrate trifluoroacetate Salt], which IC50 [1] is on record?
Its IC50 is 10500 nM.

What about the IC50 [2] of the same molecule?
Its IC50 is 1010 nM.

For `CCOC(=O)C(Cc1ccc(NC(=O)c2cccc(NC(=N)N)c2)cc1)NS(C)(=O)=O` (stereo not drawn) [Example 37, 4-[[[3-[(aminoiminomethyl)amino]phenyl]carbonyl]amino]-N-(methylsulfonyl)phenylalanine Ethyl Ester, monohydrate trifluoroacetate Salt], which IC50 [1] is on record?
Its IC50 is 2380 nM.

And the IC50 [2]?
The IC50 was 97.8 nM.

What does the source list for `CCOC(=O)NC(Cc1ccc(NC(=O)c2cccc(NC(=N)N)c2)cc1)C(=O)OCC` (stereo not drawn) [Example 38, 4-[[[3-[(aminoiminomethyl)amino]phenyl]-carbonyl]amino]-N-(ethoxycarbonyl)phenylalanine Ethyl Ester, trifluoroacetate Salt]?
IC50 [1]: 3360 nM; IC50 [2]: 106 nM

Which results are given for `CCOC(=O)C(Cc1ccc(NC(=O)c2cccc(NC(=N)N)c2)cc1)NS(=O)(=O)c1ccccc1` (stereo not drawn) [Example 40, 4-[[[3-[(aminoiminomethyl)amino]phenyl]-carbonyl]amino]-N-(phenylsulfonyl)phenylalanine Ethyl Ester, monohydrate trifluoroacetate Salt]?
IC50 [1]: 748 nM; IC50 [2]: 557 nM

How did the IC50 [1] turn out when `COC(=O)[C@H](Cc1ccc(NC(=O)c2cccc(NC(=N)N)c2)cc1)NC(=O)OC(C)(C)C` [Example 45, 4-[[[3-[(aminoiminomethyl)amino]phenyl]-carbonyl]amino]-N-[(1,1-dimethylethoxy)carbonyl]-L-phenylalanine, methyl Ester, trifluoroacetate Salt] was run?
Its IC50 is 603 nM.

What about the IC50 [2] of the same molecule?
The IC50 was 39.4 nM.

What does the source list for `CC(C)COC(=O)NC(Cc1ccc(NC(=O)c2cccc(NC(=N)N)c2)cc1)C(=O)O` (stereo not drawn) [Example 53, 4-[[[3-[(aminoiminomethyl)amino]phenyl]-carbonyl]amino]-N-[(2-methylpropoxy)carbonyl]-phenylalanine, trifluoroacetate Salt]?
IC50 [1]: 15.3 nM; IC50 [2]: 0.56 nM

How did the IC50 [1] turn out when `COC(=O)NC(Cc1ccc(NC(=O)c2cccc(NC(=N)N)c2)cc1)C(=O)O` (stereo not drawn) [Example 54, 4-[[[3-[(aminoiminomethyl)amino]phenyl]carbonyl]amino]-N-(methoxycarbonyl)phenylalanine, trifluoroacetate Salt] was run?
The IC50 was 36.5 nM.

And the IC50 [2]?
The IC50 was 0.77 nM.
